# Data as given in US20260347319A1, “YAP/TAZ-TEAD ONCOPROTEINS INHIBITORS” (BridGene Biosciences, Inc., priority 2022, published 2026).
# Read-outs that look alike come from different tables or passages of the source.
# Assays:
# Format in all cases: cell-based
# [1] = target: T1, TEAD3 (Homo sapiens, UniProt Q99594); assay: ELISA assay in H226 cells, TEAD3; design: endogenous in cells; host or cells: H226
# Protocol: (§1) ELISA: 750k cells were plated per well of 6-well plate for 24 hours, treated with compounds overnight, cells were then lysed in lysis Buffer with 5 mg/mL protease inhibitor (Cell Signaling #9803), centrifuged at 12000 g for 5 min. Cell lysates were normalized to 2 mg/mL for subsequent assays. A 96-well assay plate (Corning #3690) was coated with TEAD antibodies (anti-TEAD1: Cell Signaling #12292, 1:100; anti-TEAD2: LSBio #LS-C101693-100, 1:50; anti-TEAD3: Abcam #ab75192, 1:100; anti-TEAD4: Abcam #ab58310, 1:400) overnight at 4° C. Plates were washed with TBST (Thermo Fisher #28360) for 3 times, blocked in 100 μL blocking buffer (2% BSA-TBST, Sigma #A7030) for 1 hour at room temperature. 50 μL cell lysates were incubated overnight at 4° C. with shaking. The next day, plates were washed with TBST three times, incubated with 1:125 anti-YPA-HRP (Cell Signaling #15028S) for 4 hours at 4° C., followed by 3× washing in TBST, then incubated in HRP substrate (Thermo Fisher #34021) for 10 min at room temperature, reaction was stopped by TMB stop solution (Thermo Fisher #N600). Signal was read at wavelength 450 nm.
# Target sequence in this assay (Q99594 2-435 limits assumed): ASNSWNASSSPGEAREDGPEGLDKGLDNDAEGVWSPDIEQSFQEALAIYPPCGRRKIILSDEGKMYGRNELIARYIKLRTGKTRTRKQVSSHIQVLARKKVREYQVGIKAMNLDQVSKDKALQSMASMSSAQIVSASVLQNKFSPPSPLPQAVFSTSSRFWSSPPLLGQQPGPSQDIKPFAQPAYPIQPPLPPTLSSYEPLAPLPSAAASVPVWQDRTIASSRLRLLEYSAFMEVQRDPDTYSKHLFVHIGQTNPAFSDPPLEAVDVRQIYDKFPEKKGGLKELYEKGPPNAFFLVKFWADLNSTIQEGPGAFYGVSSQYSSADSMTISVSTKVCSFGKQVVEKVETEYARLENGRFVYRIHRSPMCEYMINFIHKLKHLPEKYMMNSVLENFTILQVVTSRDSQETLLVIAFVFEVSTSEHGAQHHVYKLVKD
# [2] = target: T2, TEAD2 (Homo sapiens, UniProt Q15562); assay: Palmitoylation assay, TEAD2 (HEK293T cells); design: unspecified tag; expressed in transfected cells; host or cells: HEK293T; details: 3 um compound, 24 hours
# T2 sequence (Q15562 whole entry): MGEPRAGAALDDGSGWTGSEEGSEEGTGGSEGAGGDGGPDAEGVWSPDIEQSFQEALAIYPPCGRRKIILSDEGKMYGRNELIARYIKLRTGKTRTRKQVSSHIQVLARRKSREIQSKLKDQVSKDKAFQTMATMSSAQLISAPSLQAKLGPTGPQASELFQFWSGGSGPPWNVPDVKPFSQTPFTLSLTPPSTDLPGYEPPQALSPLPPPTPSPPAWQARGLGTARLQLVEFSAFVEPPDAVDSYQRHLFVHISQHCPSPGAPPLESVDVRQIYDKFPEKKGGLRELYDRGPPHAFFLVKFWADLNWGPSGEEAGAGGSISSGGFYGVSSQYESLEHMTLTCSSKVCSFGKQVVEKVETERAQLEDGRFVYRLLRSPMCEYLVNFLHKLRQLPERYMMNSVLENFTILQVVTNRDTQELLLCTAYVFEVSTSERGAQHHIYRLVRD
# Protocol: (§2) Tagged TEAD constructs were cloned in pTriEx-6 (Novagen #71559) and transiently transfected into HEK293T cells for 24 hours. Then cells were treated with compounds for 24 hours, or treated with compounds plus 25 μM alkyne palmitic acid (for palmitoylation assay), and cell pellets were collected. Cells were lysed in lysis Buffer (100 mM Tris-HCl, 150 mM NaCl, 1% Triton, 5 mg/mL protease inhibitor cocktail), centrifuged for 10 min at 15000 g, TEAD proteins were pulled down and subjected to click-chemistry with TAMRA azide (Click Chemistry Tools #AZ109) to label compound-modified protein. Protein bands were separated by SDS-gel electrophoresis, target bands at expected molecular size were visualized using BioRad ChemiDoc Imaging system, band intensities were quantified by Image Studio.
# [3] = system: NCI-H226 cells; assay: Cell proliferation and viability assay (CPA) in NCI-H226 cells; details: up to 6 d; for IC50: Homo sapiens, 144 h, read-out: CPA NCI-H226 IC50 Ave
# Protocol: Compound potency and efficacy in inhibiting cell proliferation and viability was assessed in multiple cell lines. For example, NCI-H226 cells (ATCC #CRL-5826) were seeded at 2000 cells in 200 μL medium per well of a 96-well plate (Corning #3610) and incubated at 37° C. for 24 hours, then treated with serial diluted compounds for up to 6 d. Viable cells were measured by CellTiter-Glo 2.0 Cell Viability Assay (Promega #G9243), and the luminescence signal was read using an EnSight Multimode plate reader (PerkinElmer, model 9MLDHH34000000, integration time 100 ms) with Kaleido 3.0. software. For data analysis, dose-dependent curves were plotted as “inhibition” (% of DMSO-treated control wells), and were fitted by four-parametric model in GraphPad Prism to obtain IC50 values. […]
# [4] = system: TEAD1; assay: MCF-7 TEAD1-luciferase reporter assay (MCF7-TEAD-Luc); details: MCF7 cells, overnight; for IC50: Homo sapiens; for TEAD1-Luc MCF7: Max Inhibition: % of DMSO-treated control
# Method in brief: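 MCF7 cells with a TEAD luciferase reporter were seeded at 10,000 per well, grown 24 hours at 37° C, then treated overnight with serially diluted compound. Luciferase signal was normalized as % inhibition relative to DMSO controls, and IC50 came from a four-parameter fit.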
# [5] = target: T1, TEAD3; assay: Palmitoylation assay, TEAD3 (HEK293T cells); design: unspecified tag; expressed in transfected cells; host or cells: HEK293T; details: 3 um compound, 24 hours
# Protocol: as §2
# Target sequence in this assay (Q99594 whole entry): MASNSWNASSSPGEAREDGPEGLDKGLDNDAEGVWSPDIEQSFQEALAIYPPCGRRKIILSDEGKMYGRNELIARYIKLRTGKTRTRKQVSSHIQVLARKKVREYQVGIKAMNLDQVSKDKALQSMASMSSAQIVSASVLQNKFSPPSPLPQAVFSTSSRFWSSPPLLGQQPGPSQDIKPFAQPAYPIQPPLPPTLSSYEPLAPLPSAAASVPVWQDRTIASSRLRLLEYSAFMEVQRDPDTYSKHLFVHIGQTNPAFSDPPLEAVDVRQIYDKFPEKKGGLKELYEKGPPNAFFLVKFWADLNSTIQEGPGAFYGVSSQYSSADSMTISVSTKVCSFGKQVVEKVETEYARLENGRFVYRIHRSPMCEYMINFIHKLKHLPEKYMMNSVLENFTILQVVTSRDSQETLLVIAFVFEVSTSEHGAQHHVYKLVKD
# [6] = target: T3, TEAD4 (Homo sapiens, UniProt Q15561); assay: ELISA assay in H226 cells, TEAD4; design: endogenous in cells; host or cells: H226; details: overnight
# T3 sequence (Q15561 whole entry): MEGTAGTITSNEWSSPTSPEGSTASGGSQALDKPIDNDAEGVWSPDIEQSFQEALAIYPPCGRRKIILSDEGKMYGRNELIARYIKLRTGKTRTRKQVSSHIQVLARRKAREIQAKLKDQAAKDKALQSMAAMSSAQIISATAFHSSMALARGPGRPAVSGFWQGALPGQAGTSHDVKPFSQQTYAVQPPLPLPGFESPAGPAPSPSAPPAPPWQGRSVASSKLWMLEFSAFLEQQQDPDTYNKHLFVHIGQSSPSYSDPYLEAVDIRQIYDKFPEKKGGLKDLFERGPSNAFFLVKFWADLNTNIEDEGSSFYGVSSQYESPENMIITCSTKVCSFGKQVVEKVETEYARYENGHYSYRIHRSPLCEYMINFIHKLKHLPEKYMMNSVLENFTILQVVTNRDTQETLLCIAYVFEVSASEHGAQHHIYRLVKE
# Protocol: as §1
# [7] = target: T2, TEAD2; assay: ELISA assay in H226 cells, TEAD2; design: endogenous in cells; host or cells: H226
# Protocol: as §1
# [8] = system: TEAD1; assay: Palmitoylation assay, TEAD1 (HEK293T cells); details: 3 um compound, 24 hours
# Protocol: as §2
# [9] = system: TEAD1; assay: ELISA assay in H226 cells, TEAD1; details: Homo sapiens, NCI-H226, overnight
# Protocol: as §1
# [10] = target: T3, TEAD4; assay: Palmitoylation assay, TEAD4 (HEK293T cells); design: unspecified tag; expressed in transfected cells; host or cells: HEK293T; details: 3 um compound, 24 hours
# Protocol: as §2
# [11] = system: H2052 cells; assay: Cell proliferation and viability assay (CPA) in H2052 cells; details: for IC50: Homo sapiens, NCI-H2052, read-out: CPA H2052 IC50 Ave
# Protocol: (§3) Compound potency and efficacy in inhibiting cell proliferation and viability was assessed in multiple cell lines. For example, NCI-H226 cells (ATCC #CRL-5826) were seeded at 2000 cells in 200 μL medium per well of a 96-well plate (Corning #3610) and incubated at 37° C. for 24 hours, then treated with serial diluted compounds for up to 6 d. Viable cells were measured by CellTiter-Glo 2.0 Cell Viability Assay (Promega #G9243), and the luminescence signal was read using an EnSight Multimode plate reader (PerkinElmer, model 9MLDHH34000000, integration time 100 ms) with Kaleido 3.0. software. For data analysis, dose-dependent curves were plotted as “inhibition” (% of DMSO-treated control wells), and were fitted by four-parametric model in GraphPad Prism to obtain IC50 values.
# (§4) Alternatively, cells were plated at 2000 cells in 200 μL medium per well of a 96-well plate (Corning #3585) overnight, treated with compound for 7 days, cell density images taken by Incycte S3 live cell analysis instrument (Sartorius) every 24 hours at the same time. Images were analyzed by Incucyte's AI-driven software to get C “% confluence” for every image. Dose-dependent curves were plotted as “% inhibition” (% o of DMSO-treated control wells) and were fitted by four-parametric model in GraphPad Prism to obtain IC50 values.
# [12] = system: NCI-H226 cells; assay: Cell proliferation and viability assay (CPA) in NCI-H226 cells; details: up to 6 d; for IC50: Homo sapiens, 144 h, read-out: CPA NCI-H226 IC50 Ave; remark: listed apart in the source
# Protocol: as §3, §4
Structure (SMILES),IC50 ([1]; overnight),TEAD2 Inh (palmitoylation) [2],IC50 [3],IC50 [4],TEAD3 Inh (palmitoylation) [5],IC50 [6],IC50 ([7]; overnight),IC50 [9],TEAD4 Inh (palmitoylation) [10],IC50 [11],IC50 [1],IC50 [7],IC50 [12],CPA NCI-H226 Max Inh Ave [3],TEAD1-Luc MCF7: Max Inhibition [4],TEAD1 Inh (palmitoylation) [8],CPA H2052 Max Inh Ave [11],CPA NCI-H226 Max Inh Ave [12]
"C=CC(=O)N1C[C@@H](/C=C/c2ccc(C(F)(F)F)cc2)[C@H](Nc2ncccn2)C1 (single isomer, unassigned) [Example 83]",107 nM,54%,–,10 to 100 nM,90%,219 nM,17.7 nM,66.4 nM,52%,–,–,–,–,–,A (A ≥ 75%),93%,–,–
"C=CC(=O)N1CC(/C=C/c2cc(C(F)(F)F)on2)C1 [Example 21, (E)-1-(3-(2-(5-(trifluoromethyl)isoxazol-3-yl)vinyl)azetidin-1-yl)prop-2-en-1-one]",–,70%,100 to 500 nM,≤ 10 nM,96%,–,–,–,33%,≤ 100 nM,–,–,–,A (A ≥ 75%),A (A ≥ 75%),96%,B (75% > B ≥ 50%),–
"C=CC(=O)N1CC(C#N)(/C=C/c2cc(C(F)(F)F)on2)C1 [Example 34, 1-acryloyl-3-(2-(5-(trifluoromethyl)isoxazol-3-yl)vinyl)azetidine-3-carbonitrile]",–,–,100 to 500 nM,10 to 100 nM,–,–,–,–,–,≤ 100 nM,–,–,–,A (A ≥ 75%),A (A ≥ 75%),–,A (A ≥ 75%),–
"C=CC(=O)N1CCC(C#Cc2ccc(C(F)(F)F)cc2)C1 (stereo not shown) [Example 38, 1-(3-((4-(trifluoromethyl)phenyl)ethynyl)pyrrolidin-1-yl)prop-2-en-1-one]",5.6 nM,69%,≤ 100 nM,≤ 10 nM,95%,15.5 nM,3.4 nM,8.7 nM,71%,≤ 100 nM,–,–,–,B (75% > B ≥ 50%),A (A ≥ 75%),93%,B (75% > B ≥ 50%),–
"C#Cc1cc(/C=C/C2CN(C(=O)C=C)C2)ccc1C(F)(F)F [Example 45, (E)-1-(3-(3-ethynyl-4-(trifluoromethyl)styryl)azetidin-1-yl)prop-2-en-1-one]",–,–,100 to 500 nM,10 to 100 nM,–,–,–,–,–,100 to 500 nM,–,–,–,B (75% > B ≥ 50%),A (A ≥ 75%),–,B (75% > B ≥ 50%),–
C=CC(=O)N1CC[C@H](C/C=C/c2ccc(C(F)(F)F)cc2)C1 [Example 85],–,–,–,≤ 10 nM,–,–,–,–,–,≤ 100 nM,–,–,100 to 500 nM,–,A (A ≥ 75%),–,B (75% > B ≥ 50%),B (75% > B ≥ 50%)

# Now from value to molecule, other results behind:
IC50 ([1]; overnight),TEAD2 Inh (palmitoylation) [2],IC50 [3],IC50 [4],TEAD3 Inh (palmitoylation) [5],IC50 [6],IC50 ([7]; overnight),IC50 [9],TEAD4 Inh (palmitoylation) [10],IC50 [11],IC50 [1],IC50 [7],IC50 [12],Structure (SMILES),CPA NCI-H226 Max Inh Ave [3],TEAD1-Luc MCF7: Max Inhibition [4],TEAD1 Inh (palmitoylation) [8],CPA H2052 Max Inh Ave [11],CPA NCI-H226 Max Inh Ave [12]
7.2 nM,57%,≤ 100 nM,≤ 10 nM,98%,1010 nM,89 nM,13 nM,52%,≤ 100 nM,–,–,–,"C=CC(=O)N1CC[C@H](/C=C/c2ccc(C(F)(F)F)cc2)C1 (single isomer, unassigned) [Example 10]",B (75% > B ≥ 50%),A (A ≥ 75%),94%,B (75% > B ≥ 50%),–
–,32%,–,10 to 100 nM,90%,–,–,–,18%,–,–,–,–,"C=CC(=O)N1C[C@@H](C)[C@H](/C=C/c2ccc(C(F)(F)F)cc2)C1 (stereo in doubt) [Example 39, 1-((3S*,4S*)-3-methyl-4-((E)-4-(trifluoromethyl)styryl)pyrrolidin-1-yl)prop-2-en-1-one]",–,A (A ≥ 75%),89%,–,–
–,80%,–,≤ 10 nM,98%,–,–,14 nM,80%,≤ 100 nM,4 nM,179 nM,100 to 500 nM,C=CC(=O)N1CC(/C=C/c2ccc(C(F)(F)F)cc2)C1 [Example 15],–,A (A ≥ 75%),97%,B (75% > B ≥ 50%),B (75% > B ≥ 50%)
–,–,100 to 500 nM,10 to 100 nM,–,–,–,–,–,≤ 100 nM,–,–,–,"C=CC(=O)N1CC(/C=C/c2ccc(C(F)(F)F)cc2)C(OC)C1 (stereo not shown) [Example 36, 1-(3-methoxy-4-(4-(trifluoromethyl)styryl)pyrrolidin-1-yl)prop-2-en-1-one]",B (75% > B ≥ 50%),A (A ≥ 75%),–,B (75% > B ≥ 50%),–
